Values quoted from earlier work in patent US10925864B2, “Stable liquid injectable solution of midazolam and pentazocine” (NEON LABORATORIES LIMITED, priority 2015, dated 2021).
Where a name gives a salt, the structure may show the parent alone. Read-outs that look alike come from different tables or passages of the source.

Columns and labels:
[1] = after IM administration in adults
[2] = water / aqueous solutions

| Compound | Onset time of sedative effects [1] [min] | solubility [2] | solubility ([2]; hydrochloride) |
| --- | --- | --- | --- |
| Cc1ncc2n1-c1ccc(Cl)cc1C(c1ccccc1F)=NC2 [Midazolam] | 15 | insoluble in water | – |
| Cc1ncc2n1-c1ccc(Cl)cc1C(c1ccccc1F)=NC2 [hydrochloride salt of midazolam, Midazolam hydrochloride] | – | – | soluble in aqueous solutions |
